The results in this text go back to patent US6120997A, “Nucleic acid binders having an hydroxyamine motif” (The Scripps Research Institute, priority 1998, dated 2000).

pKd: −log10 of the molar value. Like-named read-outs stand apart in the source and are kept apart here.

In one assay the target is RBE3-neg. Briefly: SPR binding of aminoglycosides to RBE3-neg. As to conditions: 25 C; for pKd: pH 7.0, 10 mM HEPES, 150 mM NaCl, 0.1 mM EDTA, Scatchard slope; for Scatchard plot x-axis intercept (RBE3-neg): pH 7.0, 150 mM NaCl. The procedure: FIGS. 9A and 9B illustrate neomycin B binding to RBE3, RBE3-neg and wt-RRE-II. (A) Semilogarithmic plot. […] Conditions: pH 7.0, 10 mM HEPES, 150 mM NaCl, 0.1 mM EDTA, […].
FIGS. 10A and 10B illustrate paromomycin binding to RBE3, RBE3-neg and wt-RRE-II. (A) Semilogarithmic plot; the dashed line indicates the binding of neomycin B to wt-RRE-II for comparison (B) Scatchard plot. […] Conditions: pH 7.0, 10 mM HEPES, 150 mM NaCl, 0.1 mM EDTA, […].
Binding of the aminoglycoside to all three RNA oligonucleotides is observed starting in the low nanomolar concentration range and is non-saturable over the concentration range investigated. […] The high degree of non-specific binding is not surprising considering that aminoglycosides are highly charged polycations that tend to associate nonspecifically with the polyanionic phosphate backbone of RNA. […] Data points corresponding to 0.5 or more equivalents of neomycin B represent equilibrium values and can be analyzed with respect to stoichiometry and affinity of aminoglycoside binding. […] Both sequences bind one molecule of neomycin B with submicromolar affinity followed by weaker association with several additional equivalents of the antibiotic.
Samples were prepared by serial dilutions from stock solutions in RNase free microfuge tubes (Ambion) and were centrifuged at 14000 rpm for degassing. Buffers were filtered through sterile 0.2 &m nylon membranes (Nalgene) under vacuum, except for BIA certified HBS buffer (Pharmacia Biosensor AB) which was used as obtained. All procedures for binding studies were automated as methods using repetitive cycles of sample injection and regeneration. Typically, buffer was injected in the first two cycles to establish a stable baseline value. Samples were injected at a flowrate of 5-10 &L/min using either the KINJECT or the COINJECT command. All aminoglycoside and Rev27 samples were injected from autoclaved 7 mm plastic vials that were capped with pierceable plastic crimp caps. To minimize carry over, samples were injected in order of increasing concentration. The running buffer was identical to the injection buffer, except for the salt dependence study where a single running buffer was used for all injections. Expected values for the equilibrium response of one equivalent of analyte were calculated from the relative molecular weight of the analyte and the immobilized RNA ligand in each flowcells. These values were adjusted by multiplying with a factor of 0.8 or 0.57 for Rev27 or aminoglycosides respectively. These factors arise from the different molar refractive indices of RNA and the analyte and were determined from the Scatchard plot x-axis intercepts of the 1:1 binding isotherms for Rev27 and neomycin B.
Binding Studies with Aminoglycosides. […]
Background: SPR reads the build-up and loss of mass on a sensor chip optically.

The next assay deals with Neo16-bd. The assay is described as follows: SPR binding of aminoglycosides to Neo16-bd aptamer. The procedure:
Conditions: 10 mM HEPES (pH 7.4), 0.1 mM EDTA and NaCl as indicated.
The binding of aminoglycosides to RNA is likely to involve substantial ionic contributions and therefore should be strongly influenced by competing buffer ions. […] We studied the salt dependence of neomycin B binding to RBE3, RBE3-neg and Neo16-bd (FIG. 14) by varying the concentration of NaCl included in the injection buffer (10 mM HEPES, pH 7.4, 0.1 mM EDTA). […] This neomycin binding motif was obtained by in vitro selection under conditions of high ionic strength.
To further improve our understanding of specific aminoglycoside recognition, we have also included an artificial aminoglycoside receptor that was evolved in vitro to recognize an aminoglycoside. A number of RNA aptamers for small molecules have been reported in recent years. Among them are aptamers that recognize the aminoglycosides tobramycin, lividomycin and kanamycin.
For comparison, the corresponding values for AS-wt are also included.
(§1) General Procedures for SPR Binding Studies done in Example 5. Samples were prepared by serial dilutions from stock solutions in RNase free microfuge tubes (Ambion) and were centrifuged at 14000 rpm for degassing. Unless otherwise noted, all binding studies were carried out using HBS buffer (Pharmacia Biosensor AB) which was used as obtained. All procedures for binding studies were automated as methods using repetitive cycles of sample injection and regeneration. Typically, buffer was injected in the first two cycles to establish a stable baseline value. Samples were injected at a flowrate of […] using either the KINJECT command. All aminoglycoside samples were injected from autoclaved 7 mm plastic vials that were capped with pierceable plastic crimp caps. To minimize carry over, samples were injected in order of increasing concentration. The running buffer was identical to the injection buffer.

Assay [1] concerns wt-RRE-II, RBE3 and RBE3-neg. The assay is described as follows: SPR binding of aminoglycosides to RRE related RNAs. Also on record: species or system HIV-1. As to the method:
Samples were prepared by serial dilutions from stock solutions in RNase free microfuge tubes (Ambion) and were centrifuged at 14000 rpm for degassing. […] All procedures for binding studies were automated as methods using repetitive cycles of sample injection and regeneration. Typically, buffer was injected in the first two cycles to establish a stable baseline value. […] To minimize carry over, samples were injected in order of increasing concentration.
as §1

Usually pKd stands for −log10 of the Kd, conventionally taken in molar units. Take `NC[C@@H]1O[C@H](O[C@H]2[C@@H](O)[C@H](O[C@@H]3[C@@H](O)[C@H](N)C[C@H](N)[C@H]3O[C@H]3O[C@H](CN)[C@@H](O)[C@H](O)[C@H]3N)O[C@@H]2CO)[C@H](N)[C@@H](O)[C@@H]1O` [Neomycin B]: the pKd at RBE3-neg (read-out: Kd (RBE3-neg), neomycin B) is 6.80. Besides, the “Scatchard plot x-axis intercept (RBE3-neg)” value in the assay on RBE3-neg was determined as 0.98. Also, in the assay on Neo16-bd (250 mM NaCl, 10 mM HEPES, pH 7.4, 0.1 mM EDTA), the “selectivity for binding Neo16-bd vs. RBE3 or RBE3-neg” value is “approximately 100 fold”. For the same compound, the “specificity of Neo16bd relative to RBE3” value in the assay with Neo16-bd (HBS buffer + 150 mM NH4Cl) was “greater than 300 fold”. Besides, the pKd on Neo16-bd (HBS buffer + 150 mM NH4Cl, read-out: Kd, Neo16bd, high salt) was over 8.00. In addition, in assay [1], the “discrimination between the three RRE related sequences (in words)” value is reported as “no discrimination” and the “weaker binding to the three RRE related RNAs than to AS-wt” value is given as 12 fold.
`NC[C@@H]1O[C@H](O[C@H]2[C@@H](O)[C@H](O[C@@H]3[C@@H](O)[C@H](N)C[C@H](N)[C@H]3O[C@H]3O[C@H](CO)[C@@H](O)[C@H](O)[C@H]3N)O[C@@H]2CO)[C@H](N)[C@@H](O)[C@@H]1O` [Paromomycin]: the pKd at RBE3-neg (read-out: Kd (RBE3-neg), paromomycin) was 5.51. Also, in the assay with RBE3-neg, the “Scatchard plot x-axis intercept (RBE3-neg)” value is on record as 1.05. In addition, in the assay on Neo16-bd, the “discrimination between paromomycin and neomycin derivatives of the same charge, Neo16bd” value is “greater than 20 fold”. Further, in assay [1] (wt-RRE-II, RBE3 and RBE3-neg, equilibrium binding), the “lower affinity compared to neomycin B” value was “approximately 15 fold”.
